Reference: publication PMC12608622, “Novel Ruthenacarborane–NSAID Conjugates” (Molecules, 2025)

What was measured:
Assay in all cases: fluorescence-based COX inhibitor assay kit
Format in all cases: biochemical
COX-2 [1] = molecular target: T1, COX-2 (Homo sapiens, UniProt P35354); conditions: […] compound
T1 construct: gene PTGS2; construct not described
T1 sequence (P35354 18-604): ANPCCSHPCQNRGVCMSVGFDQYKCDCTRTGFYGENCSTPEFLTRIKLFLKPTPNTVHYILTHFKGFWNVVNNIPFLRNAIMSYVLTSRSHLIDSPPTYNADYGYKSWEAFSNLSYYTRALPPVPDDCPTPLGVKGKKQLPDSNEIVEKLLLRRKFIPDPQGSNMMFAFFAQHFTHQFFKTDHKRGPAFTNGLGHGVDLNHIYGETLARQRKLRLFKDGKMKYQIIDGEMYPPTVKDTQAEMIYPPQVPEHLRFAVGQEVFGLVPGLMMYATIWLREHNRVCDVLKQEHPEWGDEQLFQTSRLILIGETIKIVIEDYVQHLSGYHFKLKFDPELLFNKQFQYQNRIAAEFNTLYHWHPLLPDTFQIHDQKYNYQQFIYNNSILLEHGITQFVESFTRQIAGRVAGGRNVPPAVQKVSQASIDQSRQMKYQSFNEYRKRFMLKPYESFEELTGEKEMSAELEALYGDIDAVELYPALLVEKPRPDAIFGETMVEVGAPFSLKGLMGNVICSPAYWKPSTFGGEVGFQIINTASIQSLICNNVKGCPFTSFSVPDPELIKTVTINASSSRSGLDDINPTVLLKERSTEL

COX-2 [2] = molecular target: T1, COX-2
COX-1 = molecular target: T2, COX-1 (Ovis aries, UniProt P05979); conditions: […] compound
T2 construct: gene PTGS1; construct not described
T2 sequence (P05979 25-600): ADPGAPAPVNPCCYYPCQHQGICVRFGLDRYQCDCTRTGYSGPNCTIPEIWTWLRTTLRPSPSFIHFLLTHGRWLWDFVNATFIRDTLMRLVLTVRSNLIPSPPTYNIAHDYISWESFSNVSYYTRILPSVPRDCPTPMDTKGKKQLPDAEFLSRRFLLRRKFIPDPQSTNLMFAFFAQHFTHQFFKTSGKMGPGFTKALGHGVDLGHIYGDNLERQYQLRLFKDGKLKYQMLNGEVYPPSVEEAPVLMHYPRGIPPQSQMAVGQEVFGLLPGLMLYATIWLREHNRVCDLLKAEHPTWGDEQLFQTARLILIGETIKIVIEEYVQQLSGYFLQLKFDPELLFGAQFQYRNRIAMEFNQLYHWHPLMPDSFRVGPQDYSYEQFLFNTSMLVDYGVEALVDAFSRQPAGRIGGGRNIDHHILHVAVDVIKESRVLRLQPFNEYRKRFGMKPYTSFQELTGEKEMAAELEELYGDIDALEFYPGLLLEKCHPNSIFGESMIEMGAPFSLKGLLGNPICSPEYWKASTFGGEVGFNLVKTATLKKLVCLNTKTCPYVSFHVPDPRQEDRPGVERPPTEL
Source text: fluorescence-based COX inhibitor assay kit on COX-1

Row | Substance | % Inhibition @ 100 μM / COX-1 (COX-1) [%] | further results
1 | Cesium 1-(1′-hydroxymethyl)-nido-carborane [2a] |  | % Inhibition @ 100 μM / COX-2 (COX-2 [1]): 38%
2 | Cesium 1-(2′-hydroxyethyl)-nido-carborane [2b] |  | IC50 (COX-2 [2]): 84.1 µM

More lines, main results first:

Row | % Inhibition @ 100 μM / COX-1 (COX-1) [%] | Substance | further results
3 | 33 | [Ru(η^6-p-cymene)-1-{methyl (R/S)-2-[4-(2-fluorobiphenyl-4-yl)propanoic acid ester]-closo-C2B9H10}] [4a] | 
4 | 40 | [Ru(η^6-p-cymene)-2-{ethyl (R/S)-2-[4-(2-fluorobiphenyl-4-yl)propanoic acid ester]-closo-C2B9H10}] [4b] | 
5 | 30 | [Ru(η^6-p-cymene)-2-{ethyl (R/S)-2-[4-(2-propylphenyl)propanoic acid ester]-closo-C2B9H10}] [6b] | 
